{"source": "paper PMC3288743", "about": "(Bioorganic & medicinal chemistry letters, 2012)", "key": {"[1]": {"target": "T1, haspin (Homo sapiens, UniProt Q8TF76)", "T1 sequence (Q8TF76 1-798)": "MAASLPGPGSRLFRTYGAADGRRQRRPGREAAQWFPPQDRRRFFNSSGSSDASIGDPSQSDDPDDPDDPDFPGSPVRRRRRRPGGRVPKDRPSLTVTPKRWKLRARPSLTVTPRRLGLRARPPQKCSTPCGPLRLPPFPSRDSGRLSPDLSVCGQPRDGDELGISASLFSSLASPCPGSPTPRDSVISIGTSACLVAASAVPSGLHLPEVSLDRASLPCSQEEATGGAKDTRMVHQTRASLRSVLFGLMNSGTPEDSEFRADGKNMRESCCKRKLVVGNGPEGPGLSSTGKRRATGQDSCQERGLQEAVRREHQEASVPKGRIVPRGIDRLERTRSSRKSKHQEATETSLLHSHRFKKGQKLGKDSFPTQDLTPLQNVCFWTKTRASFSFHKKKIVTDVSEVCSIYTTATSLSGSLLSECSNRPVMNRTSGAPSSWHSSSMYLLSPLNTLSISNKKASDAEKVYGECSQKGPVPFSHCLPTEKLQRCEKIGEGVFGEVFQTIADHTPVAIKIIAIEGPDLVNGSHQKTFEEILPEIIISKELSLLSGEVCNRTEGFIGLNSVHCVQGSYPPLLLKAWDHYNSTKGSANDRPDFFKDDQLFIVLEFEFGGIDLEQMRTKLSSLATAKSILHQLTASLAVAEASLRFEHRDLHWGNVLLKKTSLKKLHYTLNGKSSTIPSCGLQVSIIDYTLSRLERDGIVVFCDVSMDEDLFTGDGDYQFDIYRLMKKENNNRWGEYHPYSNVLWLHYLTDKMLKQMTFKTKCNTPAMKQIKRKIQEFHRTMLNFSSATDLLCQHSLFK", "assay": "TR-FRET haspin kinase inhibition assay", "format": "biochemical"}, "[2]": {"system": "mouse xenograft model", "conditions": "cited from earlier work"}, "[3]": {"target": "CaMK2b (Homo sapiens, UniProt Q13554)", "sequence (Q13554 whole entry, species assumed)": "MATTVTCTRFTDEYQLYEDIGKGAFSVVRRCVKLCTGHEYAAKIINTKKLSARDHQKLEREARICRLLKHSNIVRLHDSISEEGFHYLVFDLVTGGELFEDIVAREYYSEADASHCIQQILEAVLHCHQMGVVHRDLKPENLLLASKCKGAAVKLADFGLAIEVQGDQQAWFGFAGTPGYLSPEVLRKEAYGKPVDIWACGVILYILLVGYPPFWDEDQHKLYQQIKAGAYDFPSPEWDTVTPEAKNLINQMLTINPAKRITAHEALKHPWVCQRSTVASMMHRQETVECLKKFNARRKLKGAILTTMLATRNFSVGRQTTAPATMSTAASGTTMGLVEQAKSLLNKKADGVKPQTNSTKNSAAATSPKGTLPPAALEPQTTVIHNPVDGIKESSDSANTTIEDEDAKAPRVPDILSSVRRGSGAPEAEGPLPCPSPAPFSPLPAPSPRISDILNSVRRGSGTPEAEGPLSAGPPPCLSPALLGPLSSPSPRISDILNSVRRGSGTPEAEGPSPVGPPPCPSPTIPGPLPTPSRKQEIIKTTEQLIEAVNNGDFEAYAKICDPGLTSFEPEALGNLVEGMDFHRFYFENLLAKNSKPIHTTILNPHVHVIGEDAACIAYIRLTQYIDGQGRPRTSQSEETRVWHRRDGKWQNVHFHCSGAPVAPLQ", "assay": "kinase panel profiling", "format": "biochemical", "conditions": "read-out: inhibition of CaMK2b"}, "[4]": {"target": "CaMK2d (Homo sapiens, UniProt Q13557)", "sequence (Q13557 whole entry, species assumed)": "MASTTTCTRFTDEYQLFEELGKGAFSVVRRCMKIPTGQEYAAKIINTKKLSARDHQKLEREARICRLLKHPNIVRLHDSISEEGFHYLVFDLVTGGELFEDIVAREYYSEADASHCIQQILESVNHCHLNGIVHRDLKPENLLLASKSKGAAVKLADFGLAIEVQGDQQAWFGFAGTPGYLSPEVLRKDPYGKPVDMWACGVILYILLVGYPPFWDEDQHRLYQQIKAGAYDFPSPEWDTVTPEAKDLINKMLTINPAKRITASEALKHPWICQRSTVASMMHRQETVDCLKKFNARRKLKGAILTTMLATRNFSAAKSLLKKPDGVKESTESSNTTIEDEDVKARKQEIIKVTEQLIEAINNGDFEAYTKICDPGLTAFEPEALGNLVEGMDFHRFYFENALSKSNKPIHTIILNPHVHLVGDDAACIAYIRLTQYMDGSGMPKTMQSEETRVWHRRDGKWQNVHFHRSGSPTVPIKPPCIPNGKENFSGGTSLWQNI", "assay": "kinase panel profiling", "format": "biochemical", "conditions": "read-out: inhibition of CaMK2d"}, "[5]": {"target": "CDK7-CycH-Mat1 (Homo sapiens, UniProt P50613)", "sequence (P50613 whole entry)": "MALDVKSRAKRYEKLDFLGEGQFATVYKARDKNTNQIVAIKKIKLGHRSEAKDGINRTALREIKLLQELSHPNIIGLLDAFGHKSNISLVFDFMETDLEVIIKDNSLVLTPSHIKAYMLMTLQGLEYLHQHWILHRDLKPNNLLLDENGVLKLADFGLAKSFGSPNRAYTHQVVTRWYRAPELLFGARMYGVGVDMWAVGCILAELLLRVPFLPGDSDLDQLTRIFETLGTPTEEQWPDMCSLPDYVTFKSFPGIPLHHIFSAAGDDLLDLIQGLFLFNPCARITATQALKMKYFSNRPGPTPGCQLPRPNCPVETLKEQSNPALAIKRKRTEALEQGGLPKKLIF", "sequence (P51946 whole entry partner)": "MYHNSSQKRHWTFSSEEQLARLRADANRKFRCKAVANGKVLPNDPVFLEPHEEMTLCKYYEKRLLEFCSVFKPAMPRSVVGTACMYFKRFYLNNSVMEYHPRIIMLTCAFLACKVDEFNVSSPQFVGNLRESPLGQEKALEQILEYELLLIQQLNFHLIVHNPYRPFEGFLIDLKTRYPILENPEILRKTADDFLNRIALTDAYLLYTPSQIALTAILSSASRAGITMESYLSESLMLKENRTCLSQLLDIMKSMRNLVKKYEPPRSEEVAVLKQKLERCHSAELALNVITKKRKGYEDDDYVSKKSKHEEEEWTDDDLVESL", "sequence (P51948 whole entry partner)": "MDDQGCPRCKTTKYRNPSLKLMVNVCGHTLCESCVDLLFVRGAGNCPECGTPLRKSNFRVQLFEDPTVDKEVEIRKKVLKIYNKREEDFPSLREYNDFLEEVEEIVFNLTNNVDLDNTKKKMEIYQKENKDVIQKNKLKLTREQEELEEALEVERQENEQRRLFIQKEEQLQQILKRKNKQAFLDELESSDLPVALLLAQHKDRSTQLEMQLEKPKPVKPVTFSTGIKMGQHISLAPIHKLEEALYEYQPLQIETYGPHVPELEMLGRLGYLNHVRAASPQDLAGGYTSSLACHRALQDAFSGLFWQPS", "assay": "kinase panel profiling", "format": "biochemical", "conditions": "read-out: inhibition of CDK7-CycH-Mat1"}, "[6]": {"target": "T2, cGK2 (Homo sapiens, UniProt Q13237)", "T2 sequence (Q13237 1-762)": "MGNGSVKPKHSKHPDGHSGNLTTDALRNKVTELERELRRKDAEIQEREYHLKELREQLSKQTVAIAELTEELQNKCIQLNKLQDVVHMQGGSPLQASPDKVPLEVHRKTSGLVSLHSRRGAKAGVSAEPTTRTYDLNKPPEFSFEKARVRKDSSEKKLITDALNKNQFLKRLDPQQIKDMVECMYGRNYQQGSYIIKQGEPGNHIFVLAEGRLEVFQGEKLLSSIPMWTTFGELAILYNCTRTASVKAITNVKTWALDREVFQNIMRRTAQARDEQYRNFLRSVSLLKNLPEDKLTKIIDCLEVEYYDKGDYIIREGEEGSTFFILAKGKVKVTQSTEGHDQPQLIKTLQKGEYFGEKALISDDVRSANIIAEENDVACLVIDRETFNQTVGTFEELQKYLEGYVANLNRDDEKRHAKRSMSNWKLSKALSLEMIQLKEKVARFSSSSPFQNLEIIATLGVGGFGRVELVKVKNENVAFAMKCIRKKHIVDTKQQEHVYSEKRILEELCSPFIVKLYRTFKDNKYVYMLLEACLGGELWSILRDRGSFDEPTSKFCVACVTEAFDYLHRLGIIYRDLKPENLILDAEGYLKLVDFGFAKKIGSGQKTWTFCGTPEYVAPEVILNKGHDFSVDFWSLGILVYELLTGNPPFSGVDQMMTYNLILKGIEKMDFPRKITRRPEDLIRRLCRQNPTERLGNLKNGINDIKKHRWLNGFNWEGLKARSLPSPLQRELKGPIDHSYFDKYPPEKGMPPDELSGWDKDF", "assay": "kinase panel profiling", "format": "biochemical", "conditions": "read-out: inhibition of cGK2"}, "[7]": {"target": "CK1d (Homo sapiens, UniProt P48730)", "assay": "kinase panel profiling", "format": "biochemical", "conditions": "read-out: inhibition of CK1d"}, "[8]": {"target": "CLK1 (Homo sapiens, UniProt P49759)", "sequence (P49759 whole entry)": "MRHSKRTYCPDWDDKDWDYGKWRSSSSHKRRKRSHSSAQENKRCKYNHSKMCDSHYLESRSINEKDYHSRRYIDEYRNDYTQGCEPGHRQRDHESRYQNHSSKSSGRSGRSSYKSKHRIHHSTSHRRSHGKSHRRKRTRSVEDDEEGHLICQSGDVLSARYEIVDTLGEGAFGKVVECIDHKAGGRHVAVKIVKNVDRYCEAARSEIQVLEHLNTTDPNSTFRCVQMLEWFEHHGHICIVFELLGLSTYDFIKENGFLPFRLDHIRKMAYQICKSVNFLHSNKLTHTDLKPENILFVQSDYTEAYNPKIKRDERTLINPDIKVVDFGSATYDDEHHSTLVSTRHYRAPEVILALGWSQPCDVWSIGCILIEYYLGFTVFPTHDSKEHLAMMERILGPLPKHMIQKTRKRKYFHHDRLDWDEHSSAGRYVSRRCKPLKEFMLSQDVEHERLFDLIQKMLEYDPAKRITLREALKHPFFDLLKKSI", "assay": "kinase panel profiling", "format": "biochemical", "conditions": "read-out: inhibition of CLK1"}, "[9]": {"target": "CLK2 (Homo sapiens, UniProt P49760)", "assay": "kinase panel profiling", "format": "biochemical", "conditions": "read-out: inhibition of CLK2"}, "[10]": {"target": "DYRK1A (Homo sapiens, UniProt Q13627)", "assay": "kinase panel profiling", "format": "biochemical", "conditions": "read-out: inhibition of DYRK1A"}, "[11]": {"target": "DYRK1B (Homo sapiens, UniProt Q9Y463)", "sequence (Q9Y463 whole entry, species assumed)": "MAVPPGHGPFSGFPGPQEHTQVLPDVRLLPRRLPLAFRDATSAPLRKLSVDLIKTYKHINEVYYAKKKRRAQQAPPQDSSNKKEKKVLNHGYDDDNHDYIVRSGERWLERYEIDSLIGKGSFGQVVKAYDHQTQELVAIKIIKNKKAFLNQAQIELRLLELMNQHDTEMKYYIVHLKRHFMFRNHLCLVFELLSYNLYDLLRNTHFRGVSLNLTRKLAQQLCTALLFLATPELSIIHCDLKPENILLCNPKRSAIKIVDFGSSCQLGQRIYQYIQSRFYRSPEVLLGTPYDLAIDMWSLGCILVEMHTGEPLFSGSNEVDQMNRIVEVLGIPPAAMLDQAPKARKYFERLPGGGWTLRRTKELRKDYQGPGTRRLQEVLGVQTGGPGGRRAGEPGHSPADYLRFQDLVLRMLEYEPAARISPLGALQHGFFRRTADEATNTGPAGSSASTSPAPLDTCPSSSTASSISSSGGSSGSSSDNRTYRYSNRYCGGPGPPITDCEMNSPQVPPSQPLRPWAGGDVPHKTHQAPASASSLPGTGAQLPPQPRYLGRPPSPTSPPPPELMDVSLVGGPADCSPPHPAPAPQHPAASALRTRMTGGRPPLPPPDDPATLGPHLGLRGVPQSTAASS", "assay": "kinase panel profiling", "format": "biochemical", "conditions": "read-out: inhibition of DYRK1B"}, "[12]": {"target": "T3, DYRK3 (Homo sapiens, UniProt O43781)", "T3 sequence (O43781 1-588)": "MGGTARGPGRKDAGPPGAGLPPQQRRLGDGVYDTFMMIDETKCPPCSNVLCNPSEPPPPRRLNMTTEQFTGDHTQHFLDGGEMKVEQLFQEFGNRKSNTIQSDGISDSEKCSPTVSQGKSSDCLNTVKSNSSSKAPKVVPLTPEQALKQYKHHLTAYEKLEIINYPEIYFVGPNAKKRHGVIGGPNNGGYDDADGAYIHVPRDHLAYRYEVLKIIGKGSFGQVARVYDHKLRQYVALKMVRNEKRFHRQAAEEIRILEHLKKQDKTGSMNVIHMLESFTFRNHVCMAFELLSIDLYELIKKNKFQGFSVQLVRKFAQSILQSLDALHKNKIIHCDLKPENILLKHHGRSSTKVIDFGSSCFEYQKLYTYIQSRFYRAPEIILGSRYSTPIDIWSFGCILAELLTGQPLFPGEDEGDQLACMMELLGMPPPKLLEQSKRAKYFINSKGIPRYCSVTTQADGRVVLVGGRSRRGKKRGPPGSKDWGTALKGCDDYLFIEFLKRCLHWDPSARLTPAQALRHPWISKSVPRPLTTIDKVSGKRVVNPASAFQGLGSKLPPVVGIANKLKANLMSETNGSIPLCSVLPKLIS", "assay": "kinase panel profiling", "format": "biochemical", "conditions": "read-out: inhibition of DYRK3"}, "[13]": {"target": "PASK (Homo sapiens, UniProt Q96RG2)", "sequence (Q96RG2 whole entry)": "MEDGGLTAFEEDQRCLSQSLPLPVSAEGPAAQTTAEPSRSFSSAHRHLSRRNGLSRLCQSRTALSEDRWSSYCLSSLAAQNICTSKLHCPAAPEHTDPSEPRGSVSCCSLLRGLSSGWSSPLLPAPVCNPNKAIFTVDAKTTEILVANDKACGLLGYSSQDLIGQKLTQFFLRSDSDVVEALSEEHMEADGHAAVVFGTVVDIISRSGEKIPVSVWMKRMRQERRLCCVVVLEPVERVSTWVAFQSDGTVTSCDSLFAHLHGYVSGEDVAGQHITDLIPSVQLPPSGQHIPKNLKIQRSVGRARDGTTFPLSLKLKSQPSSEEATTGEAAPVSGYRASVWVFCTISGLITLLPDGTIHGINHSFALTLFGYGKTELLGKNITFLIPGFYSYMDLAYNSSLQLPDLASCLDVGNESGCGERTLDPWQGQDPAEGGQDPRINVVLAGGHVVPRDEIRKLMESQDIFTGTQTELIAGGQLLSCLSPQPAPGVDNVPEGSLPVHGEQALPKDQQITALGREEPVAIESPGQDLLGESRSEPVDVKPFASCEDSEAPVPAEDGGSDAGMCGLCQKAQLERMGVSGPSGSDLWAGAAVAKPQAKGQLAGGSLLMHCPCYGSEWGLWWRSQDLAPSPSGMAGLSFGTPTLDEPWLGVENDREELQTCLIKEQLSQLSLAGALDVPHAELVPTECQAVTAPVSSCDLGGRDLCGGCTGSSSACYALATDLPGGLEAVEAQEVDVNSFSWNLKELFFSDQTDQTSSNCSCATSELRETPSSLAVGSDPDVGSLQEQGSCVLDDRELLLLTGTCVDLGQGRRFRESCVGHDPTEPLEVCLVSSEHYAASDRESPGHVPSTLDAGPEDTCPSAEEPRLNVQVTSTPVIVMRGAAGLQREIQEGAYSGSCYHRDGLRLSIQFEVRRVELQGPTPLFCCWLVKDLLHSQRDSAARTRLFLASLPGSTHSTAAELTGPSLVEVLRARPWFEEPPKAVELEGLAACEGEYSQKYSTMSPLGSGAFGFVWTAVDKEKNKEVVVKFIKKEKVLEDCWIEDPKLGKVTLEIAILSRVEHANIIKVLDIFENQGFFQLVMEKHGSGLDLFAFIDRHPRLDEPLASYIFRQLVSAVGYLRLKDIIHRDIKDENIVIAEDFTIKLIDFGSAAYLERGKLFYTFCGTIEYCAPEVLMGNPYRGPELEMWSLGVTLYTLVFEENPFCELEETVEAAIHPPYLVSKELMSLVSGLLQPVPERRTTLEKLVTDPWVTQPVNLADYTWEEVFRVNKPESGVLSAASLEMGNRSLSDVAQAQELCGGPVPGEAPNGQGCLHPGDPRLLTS", "assay": "kinase panel profiling", "format": "biochemical", "conditions": "read-out: inhibition of PASK"}, "[14]": {"target": "PIM1 (Homo sapiens, UniProt P11309)", "sequence (P11309 whole entry, species assumed)": "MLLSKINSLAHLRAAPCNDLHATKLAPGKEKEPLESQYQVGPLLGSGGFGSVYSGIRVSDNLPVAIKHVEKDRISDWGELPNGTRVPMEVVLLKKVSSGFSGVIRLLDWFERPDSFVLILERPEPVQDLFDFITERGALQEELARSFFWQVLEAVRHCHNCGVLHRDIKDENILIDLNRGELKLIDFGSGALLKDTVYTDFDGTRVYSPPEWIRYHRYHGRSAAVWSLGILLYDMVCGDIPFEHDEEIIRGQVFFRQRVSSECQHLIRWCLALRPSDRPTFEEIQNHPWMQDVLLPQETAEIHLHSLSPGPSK", "assay": "kinase panel profiling", "format": "biochemical", "conditions": "read-out: inhibition of PIM1"}, "[15]": {"target": "T4, PKD3 (Homo sapiens, UniProt O94806)", "T4 sequence (O94806 1-890)": "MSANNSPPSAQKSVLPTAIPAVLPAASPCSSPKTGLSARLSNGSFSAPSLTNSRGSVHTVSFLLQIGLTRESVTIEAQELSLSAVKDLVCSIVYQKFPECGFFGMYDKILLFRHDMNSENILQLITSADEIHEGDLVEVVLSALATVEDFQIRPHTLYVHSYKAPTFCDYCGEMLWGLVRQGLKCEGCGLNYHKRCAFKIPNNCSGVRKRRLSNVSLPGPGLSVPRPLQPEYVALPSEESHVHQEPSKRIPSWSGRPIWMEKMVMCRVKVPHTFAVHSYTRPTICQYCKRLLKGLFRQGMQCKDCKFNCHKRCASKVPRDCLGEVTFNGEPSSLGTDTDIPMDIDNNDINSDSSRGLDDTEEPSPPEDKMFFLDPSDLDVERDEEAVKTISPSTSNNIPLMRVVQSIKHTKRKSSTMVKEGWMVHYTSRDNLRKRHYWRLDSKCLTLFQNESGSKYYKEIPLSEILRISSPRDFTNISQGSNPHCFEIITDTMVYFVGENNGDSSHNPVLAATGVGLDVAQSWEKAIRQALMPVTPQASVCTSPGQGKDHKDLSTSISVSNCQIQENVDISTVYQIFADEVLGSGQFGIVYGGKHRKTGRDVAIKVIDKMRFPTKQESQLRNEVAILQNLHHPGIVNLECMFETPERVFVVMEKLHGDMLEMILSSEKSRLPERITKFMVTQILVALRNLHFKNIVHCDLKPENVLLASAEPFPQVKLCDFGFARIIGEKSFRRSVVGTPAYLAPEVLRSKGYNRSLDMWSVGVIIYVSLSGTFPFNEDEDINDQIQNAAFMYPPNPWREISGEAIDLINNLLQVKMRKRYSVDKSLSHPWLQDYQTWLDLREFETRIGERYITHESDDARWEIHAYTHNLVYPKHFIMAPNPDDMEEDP", "assay": "kinase panel profiling", "format": "biochemical", "conditions": "read-out: inhibition of PKD3"}, "[16]": {"target": "T1, haspin", "assay": "biochemical", "conditions": "read-out: inhibition of haspin"}}}
{"smiles": "Cc1nccc2c1[nH]c1cc(OCCCN)ccc12", "note": "[7a]", "values": [{"measurement": "haspin inhibition at 10 µM", "setting": "[1]", "result": "inactive"}]}
{"smiles": "Cc1nccc2c1[nH]c1cc(OCCCCN)ccc12", "note": "[7b]", "values": [{"measurement": "haspin inhibition at 10 µM", "setting": "[1]", "result": "inactive"}]}
{"smiles": "CCCNc1ccc2ncc(-c3ccc4[nH]ncc4c3)n2n1", "note": "[CHR-6494]", "values": [{"measurement": "anti-tumor activity", "setting": "[2]", "result": "displayed anti-tumor activity"}]}
{"smiles": "COc1ccc2c3ccnc(C(F)(F)F)c3n(CCCCN)c2c1", "note": "[compound 42]", "values": [{"measurement": "inhibition at 10 µM", "setting": "[3]", "result": "≥ 90", "unit": "%"}, {"measurement": "inhibition at 10 µM", "setting": "[4]", "result": "≥ 90", "unit": "%"}, {"measurement": "inhibition at 10 µM", "setting": "[5]", "result": "≥ 90", "unit": "%"}, {"measurement": "inhibition at 10 µM", "setting": "[6]", "result": "≥ 90", "unit": "%"}, {"measurement": "inhibition at 10 µM", "setting": "[7]", "result": "≥ 90", "unit": "%"}, {"measurement": "inhibition at 10 µM", "setting": "[8]", "result": "≥ 90", "unit": "%"}, {"measurement": "inhibition at 10 µM", "setting": "[9]", "result": "≥ 90", "unit": "%"}, {"measurement": "inhibition at 10 µM", "setting": "[10]", "result": "≥ 90", "unit": "%"}, {"measurement": "inhibition at 10 µM", "setting": "[11]", "result": "≥ 90", "unit": "%"}, {"measurement": "inhibition at 10 µM", "setting": "[12]", "result": "≥ 90", "unit": "%"}, {"measurement": "inhibition at 10 µM", "setting": "[13]", "result": "≥ 90", "unit": "%"}, {"measurement": "inhibition at 10 µM", "setting": "[14]", "result": "≥ 90", "unit": "%"}, {"measurement": "inhibition at 10 µM", "setting": "[15]", "result": "≥ 90", "unit": "%"}, {"measurement": "inhibition at 10 µM", "setting": "[16]", "result": "≥ 90", "unit": "%"}]}
